CC50 and EC50 data for twelve compounds are collected here from patent US12594276B2, “Inhibitors of human immunodeficiency virus replication” (ViiV Healthcare UK (No.5) Limited, priority 2024, dated 2026).

Some results are limits rather than exact numbers.

Series [1] can be described thus: Compound cytotoxicity, XTT-based colorimetric assay. The settings on record: human; uninfected MT2 cells, day 4, XTT; read-out: CC50. Format: cell-based. The procedure, abridged:
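Follows the antiviral assay procedure, but with uninfected MT2 cells. On day 4, cell viability is measured by XTT-based colorimetry, giving CC50 values.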

For series [2], the system named is recombinant NL4-3 virus (nef section replaced with Renilla luciferase gene) in MT-2 cells. Put plainly: HIV cell culture assay (antiviral activity, luciferase readout). Format: cell-based. The settings on record: Renilla, NL43, MT-2 cells infected for 4-5 days with recombinant NL4-3 Renilla luciferase virus. The procedure, abridged: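 Compound activity was measured as reduction of luciferase in MT-2 cells infected for 4-5 days with serially diluted compound present. EC50 values were calculated with the median effect equation.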

Take `CS(=O)(=O)Nc1nn(CCN[C@@H]2CCCOC2)c2c(-n3c([C@H](Cc4cc(F)cc(F)c4)NC(=O)Cn4nc(C(F)F)c5c4C(F)(F)[C@@H]4C[C@H]54)nc4nc(C5CCC(F)(F)CC5)ccc4c3=O)ccc(Cl)c12` (atropisomer, axis not shown; (P)) [Example 40, N-[(1S)-1-[(3P)-3-[4-chloro-3-methanesulfonamido-1-(2-{[(3R)-oxan-3-yl]amino}ethyl)-1H-indazol-7-yl]-7-(4,4-difluorocyclohexyl)-4-oxo-3H,4H-pyrido[2,3-d]pyrimidin-2-yl]-2-(3,5-difluorophenyl)ethyl]-2-[(2S,4R)-9-(difluoromethyl)-5,5-difluoro-7,8-diazatricyclo[4.3.0.0^2,^4]nona-1(6),8-dien-7-yl]acetamide]: in series [1], the CC50 at 4 days was more than 50 nM. Also, in series [2], the EC50 was 0.028 nM.
Take `Cc1cc(C2CCC(F)(F)CC2)nc2nc([C@H](Cc3cc(F)cc(F)c3)NC(=O)Cn3nc(C4CC4)c4c3C[C@@H]3C[C@H]43)n(-c3ccc(Cl)c4c(NS(C)(=O)=O)nn(CCN5C[C@H](C)OC(C)(C)C5)c34)c(=O)c12` (atropisomer, axis not shown; (P)) [Example 458, N-[(1S)-1-[(3P)-3-(4-chloro-3-methanesulfonamido-1-{2-[(6S)-2,2,6-trimethylmorpholin-4-yl]ethyl}-1H-indazol-7-yl)-7-(4,4-difluorocyclohexyl)-5-methyl-4-oxo-3H,4H-pyrido[2,3-d]pyrimidin-2-yl]-2-(3,5-difluorophenyl)ethyl]-2-[(2S,4S)-9-cyclopropyl-7,8-diazatricyclo[4.3.0.0^2,^4]nona-1(6),8-dien-7-yl]acetamide]: the CC50 at 4 days in series [1] was more than 20 nM. For the same compound, the EC50 in series [2] turned out to be 0.007 nM.
The like results for `COCCCn1nc(NS(C)(=O)=O)c2c(Cl)ccc(-n3c([C@H](Cc4cc(F)cc(F)c4)NC(=O)Cn4nc(C(F)F)c5c4C(F)(F)[C@@H]4C[C@H]54)nc4nc(C5CCC(F)(F)CC5)cc(CF)c4c3=O)c21` (atropisomer, axis not shown; (P)) [Example 449, N-[(1S)-1-[(3P)-3-[4-chloro-3-methanesulfonamido-1-(3-methoxypropyl)-1H-indazol-7-yl]-7-(4,4-difluorocyclohexyl)-5-(fluoromethyl)-4-oxo-3H,4H-pyrido[2,3-d]pyrimidin-2-yl]-2-(3,5-difluorophenyl)ethyl]-2-[(2S,4R)-9-(difluoromethyl)-5,5-difluoro-7,8-diazatricyclo[4.3.0.0^2,4]nona-1(6),8-dien-7-yl]acetamide] were, in that order, more than 20 nM and 0.009 nM.
The corresponding values for `COCCCn1nc(NS(C)(=O)=O)c2c(Cl)ccc(-n3c([C@H](Cc4cc(F)cc(F)c4)NC(=O)Cn4nc(C(F)F)c5c4C(F)(F)[C@@H]4C[C@H]54)nc4nc(C5CCC(F)(F)CC5)cc(NCCN5CCC(C)(C)CC5)c4c3=O)c21` (atropisomer, axis not shown; (P)) [Example 523, N-[(1S)-1-[(3P)-3-[4-chloro-3-methanesulfonamido-1-(3-methoxypropyl)-1H-indazol-7-yl]-7-(4,4-difluorocyclohexyl)-5-{[2-(4,4-dimethylpiperidin-1-yl)ethyl]amino}-4-oxo-3H,4H-pyrido[2,3-d]pyrimidin-2-yl]-2-(3,5-difluorophenyl)ethyl]-2-[(2S,4R)-9-(difluoromethyl)-5,5-difluoro-7,8-diazatricyclo[4.3.0.0^2,^4]nona-1(6),8-dien-7-yl]acetamide] are more than 20 nM and 0.012 nM.
As for `CS(=O)(=O)Nc1nn(CCN2CC(F)(F)C2)c2c(-n3c([C@H](Cc4cc(F)cc(F)c4)NC(=O)Cn4nc(C(F)F)c5c4C(F)(F)[C@@H]4C[C@H]54)nc4nc(C5CCC(F)(F)CC5)ccc4c3=O)ccc(Cl)c12` (atropisomer, axis not shown; (P)) [Example 48, N-[(1S)-1-[(3P)-3-{4-chloro-1-[2-(3,3-difluoroazetidin-1-yl)ethyl]-3-methanesulfonamido-1H-indazol-7-yl}-7-(4,4-difluorocyclohexyl)-4-oxo-3H,4H-pyrido[2,3-d]pyrimidin-2-yl]-2-(3,5-difluorophenyl)ethyl]-2-[(2S,4R)-9-(difluoromethyl)-5,5-difluoro-7,8-diazatricyclo[4.3.0.0^2,^4]nona-1(6),8-dien-7-yl]acetamide], the CC50 at 4 days in series [1] was more than 50 nM. In addition, the EC50 in series [2] is 0.018 nM.
Turning to `CS(=O)(=O)Nc1nn(CCN2CC[C@](F)(C(F)(F)F)C2)c2c(-n3c([C@H](Cc4cc(F)cc(F)c4)NC(=O)Cn4nc(C(F)F)c5c4C(F)(F)[C@@H]4C[C@H]54)nc4nc(C5CCC(F)(F)CC5)ccc4c3=O)ccc(Cl)c12` (atropisomer, axis not shown; (P)) [Example 41], the CC50 at 4 days in series [1] was more than 50 nM. Besides, the concentration for a half-maximal effect (EC50) in series [2] is 0.015 nM.
`COCCCn1nc(NS(C)(=O)=O)c2c(Cl)ccc(-n3c([C@H](Cc4cc(F)cc(F)c4)NC(=O)Cn4nc(C(F)F)c5c4C(F)(F)[C@@H]4C[C@H]54)nc4nc(C5CCC(F)(F)CC5)cc(NCCC(C)(C)OC)c4c3=O)c21` (atropisomer, axis not shown; (P)) [Example 565, N-[(1S)-1-[(3P)-3-[4-chloro-3-methanesulfonamido-1-(3-methoxypropyl)-1H-indazol-7-yl]-7-(4,4-difluorocyclohexyl)-5-[(3-methoxy-3-methylbutyl)amino]-4-oxo-3H,4H-pyrido[2,3-d]pyrimidin-2-yl]-2-(3,5-difluorophenyl)ethyl]-2-[(2S,4R)-9-(difluoromethyl)-5,5-difluoro-7,8-diazatricyclo[4.3.0.0^2,^4]nona-1(6),8-dien-7-yl]acetamide]: the CC50 at 4 days in series [1] is more than 20 nM. Further, the EC50 in series [2] turned out to be 0.011 nM.
The like results for `CC1(F)CCN(CCn2nc(NS(C)(=O)=O)c3c(Cl)ccc(-n4c([C@H](Cc5cc(F)cc(F)c5)NC(=O)Cn5nc(C(F)F)c6c5C(F)(F)[C@@H]5C[C@H]65)nc5nc(C6CCC(F)(F)CC6)ccc5c4=O)c32)CC1` (atropisomer, axis not shown; (P)) [Example 167, N-[(1S)-1-[(3P)-3-{4-chloro-1-[2-(4-fluoro-4-methylpiperidin-1-yl)ethyl]-3-methanesulfonamido-1H-indazol-7-yl}-7-(4,4-difluorocyclohexyl)-4-oxo-3H,4H-pyrido[2,3-d]pyrimidin-2-yl]-2-(3,5-difluorophenyl)ethyl]-2-[(2S,4R)-9-(difluoromethyl)-5,5-difluoro-7,8-diazatricyclo[4.3.0.0^2,^4]nona-1(6),8-dien-7-yl]acetamide] were, in that order, more than 50 nM and 0.024 nM.
The like results for `CS(=O)(=O)Nc1nn(CCN2CC3C(C2)C(F)(F)C3(F)F)c2c(-n3c([C@H](Cc4cc(F)cc(F)c4)NC(=O)Cn4nc(C(F)F)c5c4C(F)(F)[C@@H]4C[C@H]54)nc4nc(C5CCC(F)(F)CC5)ccc4c3=O)ccc(Cl)c12` (stereo partly drawn) [Example 214, N-[(1S)-1-[(3P)-3-[4-chloro-3-methanesulfonamido-1-(2-{6,6,7,7-tetrafluoro-3-azabicyclo[3.2.0]heptan-3-yl}ethyl)-1H-indazol-7-yl]-7-(4,4-difluorocyclohexyl)-4-oxo-3H,4H-pyrido[2,3-d]pyrimidin-2-yl]-2-(3,5-difluorophenyl)ethyl]-2-[(2S,4R)-9-(difluoromethyl)-5,5-difluoro-7,8-diazatricyclo[4.3.0.0^2,^4]nona-1(6),8-dien-7-yl]acetamide] were, in that order, more than 50 nM and 0.015 nM.
`CC1(C)CN(CCn2nc(NS(C)(=O)=O)c3c(Cl)ccc(-n4c([C@H](Cc5cc(F)cc(F)c5)NC(=O)Cn5nc(C(F)F)c6c5C(F)(F)[C@@H]5C[C@H]65)nc5nc(C6CCC(F)(F)CC6)ccc5c4=O)c32)CC(C(F)(F)F)O1` (stereo partly drawn) [Example 189]: the CC50 at 4 days in series [1] is more than 50 nM. Also, in series [2], the EC50 was found to be 0.035 nM.
With `Cc1cc(C2CCC(F)(F)CC2)nc2nc([C@H](Cc3cc(F)cc(F)c3)NC(=O)Cn3nc(C4CC4)c4c3C[C@@H]3C[C@H]43)n(-c3ccc(Cl)c4c(NS(C)(=O)=O)nn(CCN5CCOC(C)(C)C5)c34)c(=O)c12` (atropisomer, axis not shown; (P)) [Example 480, N-[(1S)-1-[(3P)-3-{4-chloro-1-[2-(2,2-dimethylmorpholin-4-yl)ethyl]-3-methanesulfonamido-1H-indazol-7-yl}-7-(4,4-difluorocyclohexyl)-5-methyl-4-oxo-3H,4H-pyrido[2,3-d]pyrimidin-2-yl]-2-(3,5-difluorophenyl)ethyl]-2-[(2S,4S)-9-cyclopropyl-7,8-diazatricyclo[4.3.0.0^2,^4]nona-1(6),8-dien-7-yl]acetamide], in series [1], the CC50 at 4 days is more than 20 nM. For the same compound, the EC50 in series [2] was found to be 0.005 nM.
For the compound `CS(=O)(=O)Nc1nn(CCN2C[C@H]3C[C@@H]2CO3)c2c(-n3c([C@H](Cc4cc(F)cc(F)c4)NC(=O)Cn4nc(C5CC5)c5c4C[C@@H]4C[C@H]54)nc4nc(C5CCC(F)(F)CC5)cc(C(F)F)c4c3=O)ccc(Cl)c12` (atropisomer, axis not shown; (P)) [Example 298, N-[(1S)-1-[(3P)-3-(4-chloro-3-methanesulfonamido-1-{2-[(1R,4R)-2-oxa-5-azabicyclo[2.2.1]heptan-5-yl]ethyl}-1H-indazol-7-yl)-7-(4,4-difluorocyclohexyl)-5-(difluoromethyl)-4-oxo-3H,4H-pyrido[2,3-d]pyrimidin-2-yl]-2-(3,5-difluorophenyl)ethyl]-2-[(2S,4S)-9-cyclopropyl-7,8-diazatricyclo[4.3.0.0^2,^4]nona-1(6),8-dien-7-yl]acetamide], the CC50 at 4 days in series [1] was more than 50 nM. In addition, the EC50 in series [2] came to 0.016 nM.

A word on the CC50: it is the concentration giving 50% cytotoxicity. The term EC50 denotes the midpoint of the concentration-response curve.
